Data reported in patent publication US20100075852A1, “HERBICIDE COMBINATION COMPRISING DIMETHOXYTRIAZINYL-SUBSTITUTED DIFLUOROMETHANESULFONYLANILIDES” (BAYER CROPSCIENCE AG, priority 2008, published 2010).
Like-named read-outs stand apart in the source and are kept apart here.

Assays:
Assay in all cases: Post-emergence action against weeds, greenhouse pot test, visual scoring
Format in all cases: in vivo
[1] = tested on: Abuthilon theophrasti (ABUTH); details: 21 DAT, rate (5) A-1 12
Protocol: (§1) Seeds or rhizome pieces of mono- and dicotyledonous harmful and useful plants were placed in peat pots (diameter 4 cm) filled with sandy loam and then covered with soil. The pots were kept in a greenhouse under optimum conditions. In addition, harmful plants encountered in paddy rice cultivation were cultivated in pots with a water level 2 cm above the soil surface.
(§2) About three weeks after the start of the cultivation, the test plants were treated at the 2- to 3-leaf stage. The herbicides, formulated as powder or liquid concentrates, were, either alone or in the combinations according to the invention, sprayed in various dosages on to the green parts of the plants using an application rate of 600 l of water/ha (converted). For further cultivation of the plants, the pots were then again kept under optimum conditions in a greenhouse.
(§3) The visual scoring of the herbicidal effects was carried out in intervals up to 21 days after the treatment. Scoring was carried out in percent in comparison to the untreated control plants. 0%=no herbicidal activity, 100%=complete herbicidal activity=complete kill.
(§4) The percentages from the treatments with the herbicides alone (=individual application) and with the combinations according to the invention (=mixtures) were employed to calculate interactions using the method of Colby.
(§5) • A, B=activity of components A and B in percent at a dosage of a and b g of ai/ha (=gramm of active substance per hectare), respectively. • E=expected value in % at a dosage of a+b g of ai/ha.

Avena fatua (AVEFA) = details: AVEFA; for inhibition at 4 g/ha / inhibition at 12 g/ha: Avena fatua, post-emergence, read-out: % activity found; for inhibition at 4 g/ha: 4 g of ai/ha alone; for inhibition at 12 g/ha: 12 g of ai/ha alone
Protocol: as §1, §2, §3, §4, §5

[2] = tested on: Cyperus esculentus (CYPES); details: CYPES, 21 DAT
Protocol: as §1, §2, §3, §4, §5

[3] = tested on: Fallopia (ex Polygonum) convolvulus (POLCO); details: POLCO, 21 DAT
Protocol: as §1, §2, §3, §4, §5

[4] = tested on: Lolium multiflorum (LOLMU); details: LOLMU; for inhibition at 4 g/ha / inhibition at 12 g/ha: Lolium multiflorum, post-emergence, read-out: % activity found; for inhibition at 4 g/ha: 4 g of ai/ha alone; for inhibition at 12 g/ha: 12 g of ai/ha alone
Protocol: as §1, §2, §3, §4, §5

[5] = tested on: Matricaria inodora (MATIN); details: MATIN, 21 DAT
Protocol: as §1, §2, §3, §4, §5

[6] = tested on: Pharbitis purpurea (PHBPU); details: 21 DAT
Protocol: as §1, §2, §3, §4, §5

Stellaria media (STEME) = details: 10 DAT
Protocol: as §1, §2, §3, §4, §5

[7] = tested on: Triticum aestivum (TRZAS); details: for (7) activity found: rate (5) A-1 12; for inhibition at 4 g/ha / inhibition at 12 g/ha: Triticum aestivum, post-emergence, read-out: % activity found; for inhibition at 4 g/ha: 4 g of ai/ha alone; for inhibition at 12 g/ha: 12 g of ai/ha alone
Protocol: as §1, §2, §3, §4, §5

Veronica persica (VERPE) = details: 21 DAT, rate (5) A-1 12
Protocol: as §1, §2, §3, §4, §5

Viola tricolor (VIOTR) = details: for (7) activity found: rate (5) A-1 12
Protocol: as §1, §2, §3, §4, §5

Zea mays (ZEAMX) = details: ZEAMX; for inhibition at 4 g/ha / inhibition at 12 g/ha: Zea mays, post-emergence, read-out: % activity found; for inhibition at 4 g/ha: 4 g of ai/ha alone; for inhibition at 12 g/ha: 12 g of ai/ha alone
Protocol: as §1, §2, §3, §4, §5

[8] = tested on: Alopecurus myosuroides (ALOMY); details: ALOMY, read-out: % activity found; for inhibition at 4 g/ha: 4 g of ai/ha alone; for inhibition at 12 g/ha: 12 g of ai/ha alone
Protocol: as §1, §2, §3
(§6) The percentages from the treatments with the herbicides alone (=individual application) and with the combinations according to the invention (=mixtures) were employed to calculate interactions using the method of Colby. When the observed efficacies of the mixtures exceed the formal sum of the values of the tests with individual applications, they also exceed the expected value according to Colby, which is calculated using the formula below (cf. S. R. Colby; in Weeds 15 (1967) pp. 20 to 22):
as §5

Oryza sativa (ORYSA) = details: ORYSA, read-out: % activity found; for inhibition at 4 g/ha: 4 g of ai/ha alone; for inhibition at 12 g/ha: 12 g of ai/ha alone
Protocol: as §1, §2, §3, §6, §5

Setaria viridis (SETVI) = details: 504 h, SETVI, 21 DAT, read-out: % activity found
Protocol: as §1, §2, §3, §6, §5

COc1nc(OC)nc(C(=O)c2cccc(F)c2N(C)S(=O)(=O)C(F)F)n1 [A-1]
85%: (7) activity found [1]
60%: (7) activity found ([5]; rate (5) A-1 12) | inhibition at 12 g/ha ([5]; Tripleurospermum inodorum, post-emergence, 504 h, 12 g of ai/ha alone, read-out: % activity found) | (7) activity found ([6]; rate (5) A-1 4)
0%: (7) activity found ([4]; 10 DAT, rate (5) A-1 4) | inhibition at 4 g/ha ([4]; 240 h, 10 DAT) | inhibition at 4 g/ha ([4]; 504 h, 21 DAT) | (7) activity found ([7]; 10 DAT) | (7) activity found ([7]; 21 DAT) | inhibition at 4 g/ha ([7]; 240 h, 10 DAT) | inhibition at 12 g/ha ([7]; 240 h, 10 DAT) | inhibition at 4 g/ha ([7]; 504 h, 21 DAT) | inhibition at 12 g/ha ([7]; 504 h, 21 DAT) | inhibition at 4 g/ha (Viola tricolor (VIOTR); Viola tricolor, post-emergence, 504 h, 21 DAT, 4 g of ai/ha alone, read-out: % activity found) | (7) activity found (Zea mays (ZEAMX); 10 DAT, rate (5) A-1 4) | (7) activity found (Zea mays (ZEAMX); 10 DAT, rate (5) A-1 12) | (7) activity found (Zea mays (ZEAMX); 21 DAT, rate (5) A-1 4) | (7) activity found (Zea mays (ZEAMX); 21 DAT, rate (5) A-1 4 (Table 80)) | (7) activity found (Zea mays (ZEAMX); 21 DAT, rate (5) A-1 12) | (7) activity found (Zea mays (ZEAMX); 21 DAT, rate (5) A-1 12 (Table 80)) | inhibition at 4 g/ha (Zea mays (ZEAMX); 240 h, 10 DAT) | inhibition at 12 g/ha (Zea mays (ZEAMX); 240 h, 10 DAT) | inhibition at 4 g/ha (Zea mays (ZEAMX); 504 h, 21 DAT) | inhibition at 12 g/ha (Zea mays (ZEAMX); 504 h, 21 DAT) | inhibition at 4 g/ha (Oryza sativa (ORYSA); 504 h, 21 DAT) | inhibition at 4 g/ha (Setaria viridis (SETVI); 4 g of ai/ha alone)
80%: (7) activity found ([2]; rate (5) A-1 4) | (7) activity found ([2]; rate (5) A-1 12) | (7) activity found ([2]; rate (5) A-1 12 (Table 85)) | inhibition at 4 g/ha ([2]; Cyperus esculentus, post-emergence, 504 h, 4 g of ai/ha alone, read-out: % activity found) | inhibition at 12 g/ha ([2]; Cyperus esculentus, post-emergence, 504 h, 12 g of ai/ha alone, read-out: % activity found)
10%: (7) activity found (Avena fatua (AVEFA); 21 DAT, rate (5) A-1 4) | inhibition at 4 g/ha (Avena fatua (AVEFA); 504 h, 21 DAT) | (7) activity found ([4]; 10 DAT, rate (5) A-1 12) | inhibition at 12 g/ha ([4]; 240 h, 10 DAT) | inhibition at 12 g/ha ([4]; 504 h, 21 DAT) | (7) activity found (Viola tricolor (VIOTR); 21 DAT) | inhibition at 12 g/ha (Viola tricolor (VIOTR); Viola tricolor, post-emergence, 504 h, 21 DAT, 12 g of ai/ha alone, read-out: % activity found) | inhibition at 4 g/ha (Oryza sativa (ORYSA); 240 h, 10 DAT) | inhibition at 12 g/ha (Oryza sativa (ORYSA); 240 h, 10 DAT) | inhibition at 12 g/ha (Oryza sativa (ORYSA); 504 h, 21 DAT)
70%: inhibition at 12 g/ha ([3]; Fallopia convolvulus, post-emergence, 504 h, 12 g of ai/ha alone, read-out: % activity found) | (7) activity found ([3]; rate (5) A-1 12) | (7) activity found (Stellaria media (STEME); rate (5) A-1 4) | (7) activity found (Stellaria media (STEME); rate (5) A-1 12)
30%: (7) activity found (Avena fatua (AVEFA); 21 DAT, rate (5) A-1 12) | inhibition at 12 g/ha (Avena fatua (AVEFA); 504 h, 21 DAT)
75%: inhibition at 4 g/ha ([3]; Fallopia convolvulus, post-emergence, 504 h, 4 g of ai/ha alone, read-out: % activity found) | (7) activity found ([3]; rate (5) A-1 4)
65%: (7) activity found ([6]; rate (5) A-1 12)
50%: inhibition at 12 g/ha (Avena fatua (AVEFA); 240 h, 10 DAT) | (7) activity found ([5]; rate (5) A-1 4) | inhibition at 4 g/ha ([5]; Tripleurospermum inodorum, post-emergence, 504 h, 4 g of ai/ha alone, read-out: % activity found) | inhibition at 12 g/ha ([8]; 504 h, 21 DAT)
40%: inhibition at 4 g/ha (Avena fatua (AVEFA); 240 h, 10 DAT) | (7) activity found (Veronica persica (VERPE)) | inhibition at 4 g/ha ([8]; 240 h, 10 DAT) | inhibition at 12 g/ha ([8]; 240 h, 10 DAT) | inhibition at 4 g/ha ([8]; 504 h, 21 DAT)
20%: (7) activity found (Viola tricolor (VIOTR); 10 DAT) | inhibition at 12 g/ha (Setaria viridis (SETVI); 12 g of ai/ha alone)
